ChEMBL document CHEMBL4219058, “Discovery of new thienopyrimidine derivatives as potent and orally efficacious phosphoinositide 3-kinase inhibitors” (Bioorg Med Chem, 2018)
pIC50: −log10 of the molar value.

Legend:
[1] = system: U-87 MG; test: Antiproliferative activity against human U87MG cells after 4 days by Celltiter-Glo luminescence cell viability assay; type: functional, cell-based, U-87MG ATCC; settings: 96 h
[2] = Effective permeability of the compound measured after 5 hrs by PAMPA; type: ADME; settings: read-out: Peff
[3] = molecular target: Phosphatidylinositol 4,5-bisphosphate 3-kinase catalytic subunit gamma isoform (Homo sapiens, UniProt P48736); test: Inhibition of PI3Kgamma (unknown origin) using PIP2 as substrate measured after 1 hr by Kinase-Glo luminescence assay
Chain of Phosphatidylinositol 4,5-bisphosphate 3-kinase catalytic subunit gamma isoform (P48736 whole entry, canonical isoform): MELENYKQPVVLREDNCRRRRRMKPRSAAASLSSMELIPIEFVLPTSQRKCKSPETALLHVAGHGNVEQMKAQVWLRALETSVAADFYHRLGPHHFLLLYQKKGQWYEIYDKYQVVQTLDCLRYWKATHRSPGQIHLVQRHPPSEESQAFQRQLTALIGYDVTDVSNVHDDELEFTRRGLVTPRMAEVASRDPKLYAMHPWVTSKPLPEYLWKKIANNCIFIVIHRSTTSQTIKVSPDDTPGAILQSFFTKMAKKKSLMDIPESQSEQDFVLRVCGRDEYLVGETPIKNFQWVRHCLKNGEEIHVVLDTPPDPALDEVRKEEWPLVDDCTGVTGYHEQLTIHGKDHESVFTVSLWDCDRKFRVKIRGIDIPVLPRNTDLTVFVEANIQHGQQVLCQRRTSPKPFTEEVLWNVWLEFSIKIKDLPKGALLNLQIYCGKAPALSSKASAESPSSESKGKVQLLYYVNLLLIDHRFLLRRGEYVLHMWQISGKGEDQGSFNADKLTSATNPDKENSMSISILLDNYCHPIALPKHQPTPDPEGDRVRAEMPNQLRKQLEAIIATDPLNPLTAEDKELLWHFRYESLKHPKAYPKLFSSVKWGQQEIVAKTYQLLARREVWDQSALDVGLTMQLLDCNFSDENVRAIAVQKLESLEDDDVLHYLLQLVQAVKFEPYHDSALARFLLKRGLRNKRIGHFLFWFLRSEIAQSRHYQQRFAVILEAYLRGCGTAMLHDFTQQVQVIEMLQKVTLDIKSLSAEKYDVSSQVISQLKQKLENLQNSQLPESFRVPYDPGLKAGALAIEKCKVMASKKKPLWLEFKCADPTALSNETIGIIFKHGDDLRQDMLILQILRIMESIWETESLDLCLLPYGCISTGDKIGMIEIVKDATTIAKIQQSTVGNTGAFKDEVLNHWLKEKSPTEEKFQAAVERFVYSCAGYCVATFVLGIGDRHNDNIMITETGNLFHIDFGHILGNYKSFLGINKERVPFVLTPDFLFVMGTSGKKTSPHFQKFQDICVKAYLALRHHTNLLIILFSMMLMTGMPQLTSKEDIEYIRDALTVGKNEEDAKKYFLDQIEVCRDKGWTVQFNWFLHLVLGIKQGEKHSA

Structure (SMILES) | pIC50 [1] | Papp at 5 h [2] | pIC50 [3]
COc1ccc(-c2cc3c(C)nc(N)nc3n([C@H]3CC[C@H](OCCO)CC3)c2=O)cn1 [PF-04691502] | 6.47 | – | –
COc1ncc(-c2cc3c(C)nc(N)nc3s2)cc1NS(=O)(=O)c1ccc(F)cc1F | – | 4.8 ×10⁻⁶ cm/s | –
COc1ncc(-c2cc3c(C)nc(NC(C)=O)nc3s2)cc1NS(=O)(=O)c1ccc(F)cc1F | – | 9.6 ×10⁻⁶ cm/s | 7.96
